Key:
[1] = system: non-small cell lung cancer cell line H460; experiment: H460 proliferation assay in the presence of 3 uM ASP9521 (AKR1C3 specific inhibitor); assay type: cell-based, human; details: H460 cells, CellTiter-Glo, 72 hours, in the presence of 3 uM ASP9521 added 4 hours prior to compounds; read-out: CTG H460: Avg IC50 (nM) [Assay Condition: ASP9521]
In short: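 H460 cells pre-incubated 24 h, then exposed to compounds for 72 h at 37 °C, 5% CO2. Viability read by CellTiter-Glo. ASP9521 (3 uM, AKR1C3 inhibitor) added 4 h before compounds.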

[2] = system: non-small cell lung cancer cell line H460; experiment: In vitro human cancer cell line cytotoxicity (proliferation) assay in H460, CellTiter-Glo, 72 hours; assay type: cell-based; details: H460 cells, DMSO condition (no AKR1C3 inhibitor), read-out: CTG H460: Avg IC50 (nM) [Assay Condition: DMSO]
In short: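 H460 cells were seeded at 3×10^3 per well and grown 24 h at 37 °C, 5% CO2 before compound addition from 10 mM DMSO stocks. After 72 h further incubation, viability was measured by CellTiter-Glo, and IC50 values in nM were derived from the proliferation data.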

Row | SMILES | IC50 [1] [nM] | IC50 ([2]; Homo sapiens, NCI-H460, 72 h) [nM] | IC50 [2] [nM]
1 | O=[N+]([O-])c1ccc2c(c1Oc1cccc(-c3ccnn3CCO)c1)CC[C@@H]2OP(=O)(N1CC1)N1CC1 [Example 351] | 1570 | < 10 | 
2 | O=C(NC1CC1)c1ccc(Oc2c([N+](=O)[O-])ccc3c2CC[C@H]3OP(=O)(N2CC2)N2CC2)cc1 [Example 263] | 943 |  | < 10
3 | CN1CC(=O)N(c2cccc(Oc3c([N+](=O)[O-])ccc4c3CCC4OP(=O)(N3CC3)N3CC3)c2)CC1=O (stereo not shown) [Example 122] | 3090 | 10 to 50 | 
4 | CC(OP(=O)(N1C[C@H]1C)N1C[C@H]1C)c1ccc([N+](=O)[O-])c(Oc2cccc(C(=O)N(C)C)c2)c1 (stereo partly shown) [Example 210] | 294 | < 10 | 
5 | C[C@H]1CN1P(=O)(OCc1c(F)c(F)c(OCc2ccc([N+](=O)[O-])c(Oc3cccc(C(=O)N(C)C)c3)c2)c(F)c1F)N1C[C@@H]1C (stereo partly drawn) [Example 12, 4-((3-(3-(dimethylcarbamoyl)phenoxy)-4-nitrobenzyl)oxy)-2,3,5,6-tetrafluorobenzyl bis((S)-2-methylaziridin-1-yl)phosphinate] | 89 | < 10 | 
6 | O=[N+]([O-])c1ccc2c(c1Oc1ccc(-c3ccc(F)cn3)c(F)c1)CC[C@@H]2OP(=O)(N1CC1)N1CC1 [Example 275] | 1350 | < 10 | 
7 | CC(OP(=O)(N1C[C@H]1C)N1C[C@H]1C)c1ccc([N+](=O)[O-])c(Oc2ccc(-c3ccc(F)cn3)c(F)c2)c1 (stereo partly shown) [Example 224] | 6460 |  | < 10
8 | O=[N+]([O-])c1ccc2c(c1Oc1cccc(-c3cnn(C4CC4)c3)c1)CCC2OP(=O)(N1CC1)N1CC1 (stereo not shown) [Example 96] | 5270 |  | 10 to 50
9 | O=[N+]([O-])c1ccc2c(c1Oc1cc(O)cc(OCC3CC3)c1)CC[C@@H]2OP(=O)(N1CC1)N1CC1 [Example 446, (S)-4-(3-(cyclopropylmethoxy)-5-hydroxyphenoxy)-5-nitro-2,3-dihydro-1H-inden-1-yl di(aziridin-1-yl)phosphinate] | 1210 | < 10 | 
10 | O=[N+]([O-])c1ccc2c(c1Oc1cccc(-n3ncnn3)c1)CC[C@@H]2OP(=O)(N1CC1)N1CC1 [Example 436] | 138 | < 10 | 
11 | O=[N+]([O-])c1ccc2c(c1Oc1ccc(-c3ccc(F)cn3)c(F)c1)CCC2OP(=O)(N1CC1)N1CC1 (stereo not shown) [Example 29] | 1220 | < 10 | 
12 | Cn1c(-c2cccc(Oc3c([N+](=O)[O-])ccc4c3CCC4OP(=O)(N3CC3)N3CC3)c2)cccc1=O (stereo not shown) [Example 74] | 1270 |  | ≥ 100
13 | O=[N+]([O-])c1cc2c(cc1Oc1ccc(C3CC3)cc1)C(OP(=O)(N1CC1)N1CC1)CC2 (stereo not shown) [Example 148] | 955 | < 10 | 
14 | O=[N+]([O-])c1ccc2c(c1Oc1cccc(OC(F)(F)F)c1)CC[C@@H]2OP(=O)(N1CC1)N1CC1 [Example 449] | 570 |  | < 10
15 | C[C@H]1CN1P(=O)(OCc1ccc([N+](=O)[O-])c(Oc2cccc(C(=O)N(C)C)c2)c1)N1C[C@@H]1C (stereo partly shown) [Example 207] | 217 | < 10 | 
16 | COc1ccnc(OCc2cc(C(C)OP(=O)(N3CC3)N3CC3)ccc2[N+](=O)[O-])c1 (single isomer, unassigned) [Example 3] | > 3410 | ≥ 100 | 
17 | O=[N+]([O-])c1ccc2c(c1Oc1ccc(F)c(-c3ccccc3)c1)CC[C@@H]2OP(=O)(N1CC1)N1CC1 [Example 314] | 1590 | < 10 | 
18 | O=[N+]([O-])c1ccc2c(c1Oc1cccc(-c3cccnc3)c1)CC[C@H]2OP(=O)(N1CC1)N1CC1 [Example 309] | 3070 | 10 to 50 | 
19 | O=[N+]([O-])c1cc2c(cc1Oc1ccc(-c3ccc(F)cn3)c(F)c1)C(OP(=O)(N1CC1)N1CC1)CC2 (stereo not shown) [Example 143] | 1720 |  | < 10

Row | SMILES | IC50 [1] [nM] | IC50 ([2]; Homo sapiens, NCI-H460, 72 h) [nM] | IC50 [2] [nM]
20 | O=C(NC1CCC1)c1ccc(Oc2c([N+](=O)[O-])ccc3c2CCC3OP(=O)(N2CC2)N2CC2)cc1 (stereo not shown) [Example 53] | 945 |  | < 10
21 | O=[N+]([O-])c1ccc2c(c1Oc1cccc(-c3noc(C4CC4)n3)c1)CCC2OP(=O)(N1CC1)N1CC1 (stereo not shown) [Example 91] | > 10000 |  | ≥ 100
22 | O=C1COCCN1c1cccc(Oc2c([N+](=O)[O-])ccc3c2CCC3OP(=O)(N2CC2)N2CC2)c1 (stereo not shown) [Example 110] | 2420 |  | < 10
23 | COc1cc(Oc2c([N+](=O)[O-])ccc3c2CC[C@@H]3OP(=O)(N2CC2)N2CC2)cc(-c2ncc(F)cn2)c1 [Example 365] | 1320 | < 10 | 
24 | C[C@H](OP(=O)(N1CC1)N1CC1)c1cc2cc(Oc3cccc(C(=O)N4CC(F)(F)C4)c3)c([N+](=O)[O-])cc2o1 [Example 552] | 5870 |  | 10 to 50
25 | O=c1ccc(Oc2c([N+](=O)[O-])ccc3c2CCC3OP(=O)(N2CC2)N2CC2)cn1C1CC1 (stereo not shown) [Example 511] | 429 |  | < 10
26 | CC(C)Oc1cccc(Oc2c([N+](=O)[O-])ccc3c2CC[C@H]3OP(=O)(N2CC2)N2CC2)c1 [Example 453] | 819 |  | < 10
27 | COc1ccc(Oc2c([N+](=O)[O-])ccc3c2CC[C@@H]3OP(=O)(N2CC2)N2CC2)cc1-c1ncc(F)cn1 [Example 293, (S)-4-(3-(5-fluoropyrimidin-2-yl)-4-methoxyphenoxy)-5-nitro-2,3-dihydro-1H-inden-1-yl di(aziridin-1-yl)phosphinate] | 1050 | < 10 | 
28 | CN1CCc2ccc(Oc3cc4c(cc3[N+](=O)[O-])CCC4OP(=O)(N3CC3)N3CC3)cc2C1=O (stereo not shown) [Example 167] | 3150 |  | 10 to 50
29 | O=C(c1cccc(Oc2c([N+](=O)[O-])ccc3c2CCC3OP(=O)(N2CC2)N2CC2)c1)N1CCC1 (stereo not shown) [Example 98] | 205 |  | < 10
30 | CN(C)C(=O)c1ccc(Oc2c([N+](=O)[O-])ccc3c2OCCC3OP(=O)(N2CC2)N2CC2)cc1 (single isomer, unassigned) [Example 131] | 314 |  | < 10
31 | O=[N+]([O-])c1ccc2c(c1Oc1cccc(-c3cn[nH]c3)c1)CC[C@@H]2OP(=O)(N1CC1)N1CC1 [Example 369] | 938 | < 10 | 
32 | O=[N+]([O-])c1ccc2c(c1Oc1ccc(-c3ccccc3)cc1)CCC2OP(=O)(N1CC1)N1CC1 (single isomer, unassigned) [Example 19] | 593 | < 10 | 
33 | O=[N+]([O-])c1cc2c(cc1Oc1ccc(-c3ccc(Cl)cc3)cc1)C(OP(=O)(N1CC1)N1CC1)CC2 (stereo not shown) [Example 183] | 1840 |  | 10 to 50
34 | O=[N+]([O-])c1ccc2c(c1Oc1cccc(OCC(F)(F)F)c1)CCC2OP(=O)(N1CC1)N1CC1 (racemic) [Example 473] | 329 |  | < 10
35 | O=[N+]([O-])c1ccc2c(c1Oc1cncc(-c3ccccc3)c1)CCC2OP(=O)(N1CC1)N1CC1 (stereo not shown) [Example 311] | 485 | < 10 | 
36 | O=[N+]([O-])c1ccc2c(c1Oc1ccc(F)c(-n3ccc(F)n3)c1)CC[C@H]2OP(=O)(N1CC1)N1CC1 [Example 443] | 571 | < 10 | 
37 | Cn1nccc1-c1cccc(Oc2c([N+](=O)[O-])ccc3c2CCC3OP(=O)(N2CC2)N2CC2)c1 (stereo not shown) [Example 366] | 636 |  | < 10
38 | CN(C)C(=O)c1ccc(Oc2c([N+](=O)[O-])ccc3c2CCC3OP(=O)(N2CC2)N2CC2)cc1 (single isomer, unassigned) [Example 18] | 501 |  | < 10
